Reference: patent US8383637B2, “2-amino-quinazoline derivatives useful as inhibitors of β-secretase (BACE)” (Jansssen Pharmaceutica N.V., priority 2004, dated 2013)

Target: T1, β-secretase(BACE) (Homo sapiens, UniProt P56817)
T1 construct: purchased Panvera
Test: BACE FS1% Inhibition Assay
Assay type: biochemical
Conditions: FS1 substrate; for inhibition at 0.3 µM / inhibition at 1 µM / inhibition at 3 µM: read-out: % Inhibition (FS)
Outline: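 Percent inhibition at each tested concentration, referenced to enzyme-free blank and vehicle-only positive control. Reaction: compound and BACE (4 μg/mL working stock) mixed 20 min at room temperature before FS1 substrate (300 μg/mL working stock), then 1 h at room temperature.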

T1 sequence (P56817 46-501): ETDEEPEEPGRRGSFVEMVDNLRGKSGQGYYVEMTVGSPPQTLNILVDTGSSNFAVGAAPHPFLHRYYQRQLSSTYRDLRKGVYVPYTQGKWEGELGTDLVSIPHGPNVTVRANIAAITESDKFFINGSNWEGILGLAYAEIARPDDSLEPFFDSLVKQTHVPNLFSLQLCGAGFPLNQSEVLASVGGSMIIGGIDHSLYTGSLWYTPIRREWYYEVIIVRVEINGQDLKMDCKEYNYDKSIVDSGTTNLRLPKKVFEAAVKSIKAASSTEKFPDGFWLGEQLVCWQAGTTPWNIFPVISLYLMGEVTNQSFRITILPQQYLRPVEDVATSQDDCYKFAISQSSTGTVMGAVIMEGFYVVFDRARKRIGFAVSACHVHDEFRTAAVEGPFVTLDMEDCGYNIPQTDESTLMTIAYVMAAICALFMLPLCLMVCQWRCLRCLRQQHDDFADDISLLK

Row | SMILES | % Inhibition (FS) (0.3 μM test compound) [%] | % Inhibition (FS) (1 μM test compound) [%] | % Inhibition (FS) (3 μM test compound) [%] | also measured
1 | COC1CCCC(C(=O)NCCN2Cc3cc(C4=CCCC4)ccc3N=C2N)C1 (stereo not drawn) [Compound 706] | <30 | <30 | <30 | –
2 | NC1=Nc2ccc(C3=CCCC3)cc2CN1CCNC(=O)C1CCC(C(F)(F)F)CC1 (stereo not drawn) [Compound 707] | <30 | <30 | <30 | –
3 | CN(C(=O)CC[C@@H](C1CCCCC1)N1Cc2cc(Oc3ccccc3)ccc2N=C1N)C1CCC2(CC1)OCCO2 [Compound 710] | <30 | 68 | 126 | –
4 | CN(C(=O)CC[C@@H](C1CCCCC1)N1Cc2cc(Oc3ccccc3)ccc2N=C1N)C1CCC(=O)CC1 [Compound 711] | <30 | 43 | 113 | –
5 | COc1ccccc1-c1ccc2c(c1)CN([C@@H](CCC(=O)N(C)Cc1csc(-c3ccccc3)n1)C1CCCCC1)C(N)=N2 [Compound 716] | <30 | <30 | 72 | –
6 | COc1ccccc1-c1ccc2c(c1)CN([C@@H](CCC(=O)N(C)Cc1cnn(-c3ccccc3)c1)C1CCCCC1)C(N)=N2 [Compound 717] | 33 | 39 | 72 | –
7 | COc1ccccc1-c1ccc2c(c1)CN([C@@H](CCC(=O)N(C)Cc1cc(C)no1)C1CCCCC1)C(N)=N2 [Compound 718] | <30 | 30 | 114 | –
8 | COc1ccccc1-c1ccc2c(c1)CN([C@@H](CCC(=O)N(C)Cc1cc(-c3ccccc3)on1)C1CCCCC1)C(N)=N2 [Compound 719] | 31 | <30 | 81 | –
9 | CN(Cc1csc(-c2ccccc2)n1)C(=O)CC[C@@H](C1CCCCC1)N1Cc2cc(-c3ccccc3F)ccc2N=C1N [Compound 722] | 35 | 35 | 78 | –
10 | CN(Cc1cc(-c2ccccc2)on1)C(=O)CC[C@@H](C1CCCCC1)N1Cc2cc(-c3ccccc3F)ccc2N=C1N [Compound 724] | 38 | <30 | 65 | –
11 | CC(C)N1CCC(N(C)C(=O)CC[C@@H](C2CCCCC2)N2Cc3cc(Oc4ccccc4)ccc3N=C2N)CC1 [Compound 728] | 43 | 58 | 97 | –
12 | CCOC(=O)C1CCC(N(C)C(=O)CCC(C2CCCCC2)N2Cc3cc(Oc4ccccc4)ccc3N=C2N)CC1 (stereo not drawn) [Compound 737] | – | – | – | % Inhibition (FS) (0.3 μM test compound, 0.3 µM): 22%; % Inhibition (FS) (1 μM test compound, 1 µM): 34%; % Inhibition (FS) (3 μM test compound, 3 µM): 97%
13 | CN(C(=O)CCC(C)(C)N1Cc2cc(Oc3ccccc3)ccc2N=C1N)C1CCCCC1 [Compound 738] | 14 | 28 | 61 | –
14 | CN(C(=O)CCC(C1CCCCC1)N1Cc2cc(Oc3ccccc3)ccc2N=C1N)C1(C(=O)O)CCCCC1 (stereo not drawn) [Compound 741] | −48 | −38 | −25 | –
15 | CN(C(=O)CCC(C1CCOCC1)N1Cc2cc(Oc3ccccc3)ccc2N=C1N)C1CCC(C(=O)O)CC1 (stereo not drawn) [Compound 743] | 107 | 125 | 130 | –
16 | COC(=O)[C@H]1CC[C@H](NC(=O)CC[C@@H](C2CCOCC2)N2Cc3cc(Oc4ccccc4)ccc3N=C2N)CC1 [Compound 747] | 41 | 74 | 104 | –
17 | CN(CCCCC(=O)O)C(=O)CC[C@@H](C1CCCCC1)N1Cc2cc(Oc3ccccc3)ccc2N=C1N [Compound 752] | 45 | 81 | 109 | –
18 | CN(C(=O)CC[C@@H](C1CCCCC1)N1Cc2ccc(Oc3ccccc3)cc2N=C1N)C1CCCCC1 [Compound 754] | 8 | 35 | 89 | –
19 | CN(C(=O)CCC(C1CCCCC1)N1Cc2cc(Oc3ccccc3)ccc2N=C1N)C1CCC(C(=O)OCc2ccccc2)CC1 (stereo not drawn) [Compound 760] | <30 | 44 | 89 | –
20 | CCOC(=O)C1CCC(N(C)C(=O)CCC(C2CCCCC2)N2Cc3cc(Oc4ccccc4)ccc3N=C2N)CC1 (stereo not drawn) [Compound 763] | – | – | – | % Inhibition (FS) (0.3 μM test compound, 0.3 µM): <30%; % Inhibition (FS) (1 μM test compound, 1 µM): 84%; % Inhibition (FS) (3 μM test compound, 3 µM): 109%

Row | SMILES | % Inhibition (FS) (0.3 μM test compound) [%] | % Inhibition (FS) (1 μM test compound) [%] | % Inhibition (FS) (3 μM test compound) [%] | also measured
21 | CNC(=O)C1CCC(N(C)C(=O)CCC(C2CCCCC2)N2Cc3cc(Oc4ccccc4)ccc3N=C2N)CC1 (stereo not drawn) [Compound 765] | <30 | 56 | 97 | –
22 | CN(C(=O)CCC(C1CCCCC1)N1Cc2cc(Oc3ccccc3)ccc2N=C1N)c1ccc(C(=O)O)cc1 (stereo not drawn) [Compound 766] | <30 | <30 | <30 | –
23 | CN(CC(=O)O)C(=O)CCC(C1CCCCC1)N1Cc2cc(Oc3ccccc3)ccc2N=C1N (stereo not drawn) [Compound 767] | <30 | 71 | 106 | –
24 | CN(C(=O)CCC(C1CCCCC1)N1Cc2cc(Oc3ccccc3)ccc2N=C1N)C1CCC(C#N)CC1 (stereo not drawn) [Compound 769] | <30 | 61 | 107 | –
25 | CN(C(=O)CCC(C1CCCCC1)N1Cc2cc(Oc3ccccc3)ccc2N=C1N)C1CCC(c2nn[nH]n2)CC1 (stereo not drawn) [Compound 770] | <30 | <30 | <30 | –
26 | COC(=O)Cc1cccc(CN(C)C(=O)CCC(C2CCCCC2)N2Cc3cc(Oc4ccccc4)ccc3N=C2N)c1 (stereo not drawn) [Compound 775] | <30 | 62 | 111 | –
27 | CN(Cc1cccc(CC(=O)O)c1)C(=O)CCC(C1CCCCC1)N1Cc2cc(Oc3ccccc3)ccc2N=C1N (stereo not drawn) [Compound 778] | <30 | 77 | 113 | –
28 | COC(=O)C(COCc1ccccc1)N(C)C(=O)CCC(C1CCCCC1)N1Cc2cc(Oc3ccccc3)ccc2N=C1N (stereo not drawn) [Compound 780] | 69 | 97 | 109 | –
29 | CN(C(=O)CCC(C1CCCCC1)N1Cc2cc(Oc3ccccc3)ccc2N=C1N)C(COCc1ccccc1)C(=O)O (stereo not drawn) [Compound 781] | 106 | 109 | 121 | –
30 | CN(C(=O)c1cccc(CN2Cc3ccccc3N=C2N)c1)C1CCCCC1 [Compound 801] | – | – | – | inhibition at 0.3 µM (0.3 μM test compound): < 30%; inhibition at 1 µM (1 μM test compound): < 30%; inhibition at 3 µM (3 μM test compound): < 30%
31 | CN(C(=O)c1cccc(CN2Cc3cc(Br)ccc3N=C2N)c1)C1CCCCC1 [Compound 802] | – | – | – | inhibition at 0.3 µM (0.3 μM test compound): < 30%; inhibition at 1 µM (1 μM test compound): < 30%; inhibition at 3 µM (3 μM test compound): 50%
32 | CN(C(=O)CC(c1ccccc1)N1Cc2cc(F)ccc2N=C1N)C1CCCCC1 (stereo not drawn) [Compound 803] | – | – | – | inhibition at 0.3 µM (0.3 μM test compound): < 30%; inhibition at 1 µM (1 μM test compound): < 30%; inhibition at 3 µM (3 μM test compound): < 30%
33 | NC1=Nc2ccc(Br)cc2CN1CCC(=O)NC12CC3CC(CC(C3)C1)C2 [Compound 804] | – | – | – | inhibition at 0.3 µM (0.3 μM test compound): < 30%; inhibition at 1 µM (1 μM test compound): < 30%; inhibition at 3 µM (3 μM test compound): < 30%
34 | NC1=Nc2ccc(Oc3ccccc3)cc2CN1Cc1cccc(C(=O)O)c1 [Compound 805] | – | – | – | inhibition at 0.3 µM (0.3 μM test compound): < 30%; inhibition at 1 µM (1 μM test compound): < 30%; inhibition at 3 µM (3 μM test compound): < 30%
35 | NC1=Nc2ccc(Br)cc2CN1CCNC(=O)C1CCCCC1 [Compound 806] | – | – | – | inhibition at 0.3 µM (0.3 μM test compound): < 30%; inhibition at 1 µM (1 μM test compound): < 30%; inhibition at 3 µM (3 μM test compound): < 30%
36 | N#Cc1cccc(C(=O)NCCN2Cc3cc(Br)ccc3N=C2N)c1 [Compound 807] | – | – | – | inhibition at 0.3 µM (0.3 μM test compound): < 30%; inhibition at 1 µM (1 μM test compound): < 30%; inhibition at 3 µM (3 μM test compound): < 30%
37 | CCCC(=O)NCCN1Cc2cc(Br)ccc2N=C1N [Compound 808] | – | – | – | inhibition at 0.3 µM (0.3 μM test compound): < 30%; inhibition at 1 µM (1 μM test compound): < 30%; inhibition at 3 µM (3 μM test compound): < 30%
38 | CC(C)(C)C(=O)NCCN1Cc2cc(Br)ccc2N=C1N [Compound 809] | – | – | – | inhibition at 0.3 µM (0.3 μM test compound): < 30%; inhibition at 1 µM (1 μM test compound): < 30%; inhibition at 3 µM (3 μM test compound): 32%
39 | COc1cccc(CCNC(=O)CCC(C2CCCCC2)N2Cc3cc(F)ccc3N=C2N)c1 (stereo not drawn) [Compound 810] | – | – | – | inhibition at 0.3 µM (0.3 μM test compound): < 30%; inhibition at 1 µM (1 μM test compound): < 30%; inhibition at 3 µM (3 μM test compound): < 30%
40 | NC1=Nc2ccc(Oc3ccccc3)cc2CN1Cc1cccc(N)c1 [Compound 811] | – | – | – | inhibition at 0.3 µM (0.3 μM test compound): < 30%; inhibition at 1 µM (1 μM test compound): < 30%; inhibition at 3 µM (3 μM test compound): < 30%
